Results as given in ChEMBL document CHEMBL1201862, “PubChem BioAssay data set” (2004).
Active and inactive are the calls of the source.

Key:
Type in all cases: functional
P388/ADR = assay: cells; conditions: Mus musculus
SN12K1 = assay: cells; conditions: Homo sapiens
P388 = assay: cells; conditions: Mus musculus
[1] = biological target: T1, Carboxy-terminal domain RNA polymerase II polypeptide A small phosphatase 1 (Homo sapiens, UniProt Q9GZU7); assay: CTDSP1 inhibitors, concentration-response, biochemical, absorbance readout, ultra-high-throughput screen actives (AID 540297)
T1 sequence (Q9GZU7 whole entry): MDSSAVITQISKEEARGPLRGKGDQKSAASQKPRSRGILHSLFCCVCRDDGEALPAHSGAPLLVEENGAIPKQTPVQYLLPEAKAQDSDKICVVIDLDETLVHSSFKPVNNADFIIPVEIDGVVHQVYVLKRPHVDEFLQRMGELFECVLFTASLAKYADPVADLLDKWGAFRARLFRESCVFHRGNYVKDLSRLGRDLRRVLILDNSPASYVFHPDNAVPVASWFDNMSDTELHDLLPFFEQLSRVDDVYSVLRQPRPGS

[2] = Counterscreen for activators of the function of SWI/SNF related, matrix associated, actin dependent regulator of chromatin, subfamily a, member 2 (SMARCA2, BRM): Luminescence-based cell-based high throughput dose response assay to identify non-selective compounds using the VP16 reporter assay.
[3] = biological target: SWI/SNF-related matrix-associated actin-dependent regulator of chromatin subfamily A member 2 (Homo sapiens, UniProt P51531); assay: Luminescence-based cell-based high throughput dose response assay to identify activators of the function of SWI/SNF related, matrix associated, actin dependent regulator of chromatin, subfamily a, member 2 (SMARCA2, BRM).
Chain of SWI/SNF-related matrix-associated actin-dependent regulator of chromatin subfamily A member 2 (P51531 whole entry): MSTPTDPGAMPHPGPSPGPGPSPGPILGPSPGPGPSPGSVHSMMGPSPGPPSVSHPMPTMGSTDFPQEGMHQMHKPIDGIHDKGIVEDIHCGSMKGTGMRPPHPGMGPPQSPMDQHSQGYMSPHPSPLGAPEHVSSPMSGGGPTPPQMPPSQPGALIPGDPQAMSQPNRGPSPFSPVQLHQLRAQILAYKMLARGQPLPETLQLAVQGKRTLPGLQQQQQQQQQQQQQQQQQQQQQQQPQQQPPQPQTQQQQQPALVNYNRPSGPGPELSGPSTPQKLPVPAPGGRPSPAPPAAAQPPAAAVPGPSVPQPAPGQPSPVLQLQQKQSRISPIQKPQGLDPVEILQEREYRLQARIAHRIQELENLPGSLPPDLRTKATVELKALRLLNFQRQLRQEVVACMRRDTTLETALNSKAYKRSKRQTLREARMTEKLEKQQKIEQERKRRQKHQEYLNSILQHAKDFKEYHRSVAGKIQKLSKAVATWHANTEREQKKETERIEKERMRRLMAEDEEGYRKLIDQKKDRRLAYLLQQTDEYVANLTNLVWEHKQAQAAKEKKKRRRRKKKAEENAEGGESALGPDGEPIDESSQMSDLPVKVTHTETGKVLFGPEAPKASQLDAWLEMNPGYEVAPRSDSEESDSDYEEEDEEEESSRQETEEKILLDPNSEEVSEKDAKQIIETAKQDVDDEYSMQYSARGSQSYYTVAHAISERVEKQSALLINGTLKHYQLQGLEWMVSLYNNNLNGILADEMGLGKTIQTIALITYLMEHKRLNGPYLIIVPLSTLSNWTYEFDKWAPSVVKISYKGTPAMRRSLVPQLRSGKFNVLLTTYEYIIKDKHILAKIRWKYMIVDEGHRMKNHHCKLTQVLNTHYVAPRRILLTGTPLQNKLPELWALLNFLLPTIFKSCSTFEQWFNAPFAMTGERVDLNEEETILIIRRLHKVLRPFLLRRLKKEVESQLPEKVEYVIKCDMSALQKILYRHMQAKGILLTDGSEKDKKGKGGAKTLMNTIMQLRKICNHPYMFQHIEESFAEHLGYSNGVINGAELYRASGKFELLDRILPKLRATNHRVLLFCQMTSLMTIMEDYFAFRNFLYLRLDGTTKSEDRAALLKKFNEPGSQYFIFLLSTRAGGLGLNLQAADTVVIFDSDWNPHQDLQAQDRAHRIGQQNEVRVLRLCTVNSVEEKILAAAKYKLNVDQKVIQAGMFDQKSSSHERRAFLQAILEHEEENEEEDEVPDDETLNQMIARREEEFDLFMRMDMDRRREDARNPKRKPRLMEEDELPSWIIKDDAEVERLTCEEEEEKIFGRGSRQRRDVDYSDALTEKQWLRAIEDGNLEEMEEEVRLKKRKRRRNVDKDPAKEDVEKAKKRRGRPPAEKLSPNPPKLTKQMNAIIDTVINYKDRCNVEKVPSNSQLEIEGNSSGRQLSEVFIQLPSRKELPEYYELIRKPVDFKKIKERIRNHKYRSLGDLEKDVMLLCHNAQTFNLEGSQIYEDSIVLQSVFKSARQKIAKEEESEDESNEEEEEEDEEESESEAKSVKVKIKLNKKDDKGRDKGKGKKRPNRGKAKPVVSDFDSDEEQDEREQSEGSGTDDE

Protein Wnt-3a = Protein Wnt-3a (Mus musculus, UniProt P27467); assay: antagonism of Wnt3a pathway luciferase reporter – Wnt-LIGHT cells, luminescence, selectivity assay for Gli-SUFU antagonist project, dose response (AID 651570); conditions: read-out: IC50_Mean;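 further: Wnt-LIGHT reporter cells stimulated with conditioned medium from Wnt3a-producing cells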
Chain of Protein Wnt-3a (P27467 whole entry): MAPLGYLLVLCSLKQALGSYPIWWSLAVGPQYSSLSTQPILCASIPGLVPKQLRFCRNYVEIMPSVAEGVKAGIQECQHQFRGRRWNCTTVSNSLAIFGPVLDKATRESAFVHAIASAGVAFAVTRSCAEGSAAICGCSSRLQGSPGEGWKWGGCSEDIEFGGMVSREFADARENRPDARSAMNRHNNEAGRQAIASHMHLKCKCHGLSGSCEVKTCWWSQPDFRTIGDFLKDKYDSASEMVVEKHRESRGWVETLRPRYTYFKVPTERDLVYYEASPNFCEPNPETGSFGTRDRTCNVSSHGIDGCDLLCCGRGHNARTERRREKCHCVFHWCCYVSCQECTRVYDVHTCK

[4] = biological target: 26S proteasome non-ATPase regulatory subunit 14 (Homo sapiens, UniProt O00487); assay: inhibition of proteasome subunit RPN11 – biochemical, fluorescence polarization, uHTS hits, confirmation (AID 602368)
Chain of 26S proteasome non-ATPase regulatory subunit 14 (O00487 whole entry): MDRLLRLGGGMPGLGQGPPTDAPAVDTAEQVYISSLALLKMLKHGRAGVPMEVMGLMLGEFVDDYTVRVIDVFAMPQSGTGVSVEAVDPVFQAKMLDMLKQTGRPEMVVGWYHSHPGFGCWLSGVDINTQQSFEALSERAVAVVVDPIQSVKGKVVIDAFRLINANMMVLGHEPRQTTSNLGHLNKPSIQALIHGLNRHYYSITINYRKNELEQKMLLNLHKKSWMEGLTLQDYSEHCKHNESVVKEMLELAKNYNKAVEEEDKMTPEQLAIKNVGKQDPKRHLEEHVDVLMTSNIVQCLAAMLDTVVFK

[5] = biological target: 72 kDa type IV collagenase (Homo sapiens, UniProt P08253); assay: Dose Response validation of uHTS RPN11 inhibitor hits using a MMP-2 Fluorescence assay.
Chain of 72 kDa type IV collagenase (P08253 whole entry): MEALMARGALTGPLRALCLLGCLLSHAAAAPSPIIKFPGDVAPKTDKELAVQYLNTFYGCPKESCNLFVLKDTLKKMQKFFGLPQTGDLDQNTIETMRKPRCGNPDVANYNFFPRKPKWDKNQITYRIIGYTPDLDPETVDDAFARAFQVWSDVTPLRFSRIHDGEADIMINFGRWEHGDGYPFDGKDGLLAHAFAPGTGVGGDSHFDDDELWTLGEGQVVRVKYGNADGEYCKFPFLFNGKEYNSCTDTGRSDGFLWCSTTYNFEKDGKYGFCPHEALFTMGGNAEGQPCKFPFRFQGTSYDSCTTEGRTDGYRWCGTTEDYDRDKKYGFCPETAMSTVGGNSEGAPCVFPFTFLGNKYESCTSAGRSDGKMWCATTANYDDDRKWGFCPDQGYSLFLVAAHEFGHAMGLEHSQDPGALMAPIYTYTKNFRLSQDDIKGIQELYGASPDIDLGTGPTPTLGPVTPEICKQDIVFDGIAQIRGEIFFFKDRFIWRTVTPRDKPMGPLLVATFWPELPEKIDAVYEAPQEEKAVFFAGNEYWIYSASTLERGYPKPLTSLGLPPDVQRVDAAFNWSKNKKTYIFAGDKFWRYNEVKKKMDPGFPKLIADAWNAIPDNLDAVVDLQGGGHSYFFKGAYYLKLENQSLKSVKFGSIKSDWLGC

Prothrombin = Prothrombin (Bos taurus, UniProt P00735); assay: thrombin protease inhibitors – biochemical, fluorescence polarization, uHTS hits, dose response (AID 602369)
[6] = biological target: T2, Endoribonuclease toxin MazF (Escherichia coli K-12, UniProt P0AE70); assay: activation of MazEF endoribonuclease cleavage – biochemical, fluorescence, single-stranded RNA substrate, uHTS hits, dose response (AID 588481)
T2 sequence (P0AE70 whole entry): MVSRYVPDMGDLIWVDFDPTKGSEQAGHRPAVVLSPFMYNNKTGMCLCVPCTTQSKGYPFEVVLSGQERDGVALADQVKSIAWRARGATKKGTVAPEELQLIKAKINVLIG

[7] = biological target: T2, Endoribonuclease toxin MazF; assay: substrate-only fluorescence increase artefacts – biochemical, single-stranded RNase substrate, counter-screen for MazEF activator project, dose response (AID 588502)

SMILES: O=C(NC(Cc1ccc(I)cc1)C(=O)O)c1ccc(Br)cc1 (stereo unspecified)
- GI50 (P388/ADR): 21.3 µM (inactive)
- GI50 (SN12K1): > 100 µM (inactive)
- GI50 (P388): 53.7 µM (inactive)

SMILES: O=C1NC2c3c(Cl)sc(Cl)c3C(=O)C2O1 (stereo unspecified)
- IC50 [1]: 3.75 µM (active)
- EC50 [2]: > 91 µM (inactive)
- EC50 [3]: > 91 µM (inactive)

SMILES: Cc1ccc(NC(=O)/C=C/c2ccco2)cc1S(=O)(=O)N1CCCCCC1
- IC50 (Protein Wnt-3a): 17.7 µM (active)

SMILES: Cc1ccc(CNC(=O)c2nnn(CC(=O)Nc3cc(C)cc(C)c3)c2N)cc1
- IC50 [4]: 35.4 µM (active)
- IC50 [5]: > 100 µM (inactive)
- IC50 (Prothrombin): 76.5 µM (active)

SMILES: Cc1cc(NC(=O)CSc2nc3c4ccccc4nc-3c(O)n2-c2ccccc2F)no1
- IC50 (Protein Wnt-3a): 6.29 µM (active)

SMILES: CCOc1ccccc1C(=O)Nc1cc(Cl)ccc1O
- EC50 [6]: 38 µM (inactive)
- EC50 [7]: > 99 µM (inactive)

SMILES: Cc1[nH]c2ccccc2c1/C=C(\C#N)C(=O)NCc1ccccc1
- EC50 [6]: > 99 µM (inactive)
- EC50 [7]: > 99 µM (inactive)

SMILES: c1ccc(C[n+]2cccc(-c3ccccc3)c2)cc1
- IC50 (Protein Wnt-3a): 44.8 µM (inactive)
